Data on nine molecules can be found in PubChem BioAssay (NCI).

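How tested: cells in 96-well plates exposed to compound for 48 hours at five concentrations. TGI marks complete inhibition of growth.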

Test systems include A498 renal; CCRF-CEM leukemia; DU-145 prostate; HCT-15 colon; K-562 leukemia; LOX IMVI melanoma; M14 melanoma; MCF7 breast; NCI-H23 lung; NCI/ADR-RES ovarian; SK-MEL-2 melanoma; SK-OV-3 ovarian; SW-620 colon; U251 CNS; UACC-257 melanoma; UACC-62 melanoma.
Test in all cases: NCI tumour cell line growth inhibition, 48 h

As to `COc1cc2c3c4c1OCc1c5c(cc(c1-4)CC3[N+](C)(C)CC2)OCO5` (centres undefined), the TGI with A498 renal, with CCRF-CEM leukemia, with DU-145 prostate, in the assay with HCT-15 colon, in the assay on K-562 leukemia and in the assay with LOX IMVI melanoma was above 100 µM in each case. Moreover, the TGI in the assay with M14 melanoma, in the assay with MCF7 breast, in the assay on NCI-H23 lung, in the assay on NCI/ADR-RES ovarian, in the assay with SK-MEL-2 melanoma and in the assay on SK-OV-3 ovarian was above 100 µM each time. For the same molecule, the TGI in the assay with SW-620 colon is above 100 µM; with U251 CNS, above 64.1 µM; in the assay with UACC-257 melanoma, above 100 µM; with UACC-62 melanoma, above 100 µM.

For `NC(=O)N/N=C/c1ccccc1O`, the TGI in the assay on A498 renal, in the assay with CCRF-CEM leukemia, in the assay on DU-145 prostate, with HCT-15 colon, with K-562 leukemia and with LOX IMVI melanoma was above 100 µM each time. Further, the TGI in the assay with M14 melanoma, with MCF7 breast, in the assay on NCI-H23 lung, with NCI/ADR-RES ovarian, in the assay on SK-MEL-2 melanoma and in the assay on SK-OV-3 ovarian was above 100 µM throughout. Further, the TGI in the assay on SW-620 colon, with U251 CNS, in the assay on UACC-257 melanoma and in the assay with UACC-62 melanoma was above 100 µM throughout.

For the molecule `OCC1(CNc2cc(Cl)ncn2)CCC1`, the TGI with A498 renal, in the assay on CCRF-CEM leukemia, in the assay with DU-145 prostate, with HCT-15 colon, in the assay on K-562 leukemia and in the assay on LOX IMVI melanoma was above 100 µM throughout. In addition, the TGI with MCF7 breast, in the assay with NCI-H23 lung, with NCI/ADR-RES ovarian, with SK-MEL-2 melanoma, with SW-620 colon and in the assay with U251 CNS was above 100 µM each time. The molecule also had a TGI in the assay with UACC-257 melanoma above 100 µM.

With `Cc1ccc2c(c1)C/C(=C\c1ccccc1C(=O)O)C2=O`, the TGI in the assay with A498 renal, in the assay with CCRF-CEM leukemia, in the assay on DU-145 prostate, in the assay with HCT-15 colon, in the assay on K-562 leukemia and with LOX IMVI melanoma was above 100 µM throughout. Besides, the TGI in the assay on MCF7 breast, with NCI-H23 lung, in the assay with NCI/ADR-RES ovarian, with SK-MEL-2 melanoma, with SW-620 colon and in the assay with U251 CNS was above 100 µM in each case. The TGI in the assay on UACC-257 melanoma and with UACC-62 melanoma was above 100 µM in each case.

As for `Cc1ccc2nnc(NS(=O)(=O)c3cc(C)c(Cl)cc3S)n2n1`, the TGI with A498 renal, in the assay with CCRF-CEM leukemia, in the assay with DU-145 prostate, in the assay with HCT-15 colon, in the assay with K-562 leukemia and in the assay with LOX IMVI melanoma was above 100 µM throughout. In addition, the TGI in the assay on M14 melanoma, with MCF7 breast, in the assay with NCI/ADR-RES ovarian, with SK-MEL-2 melanoma, in the assay on SK-OV-3 ovarian and in the assay with SW-620 colon was above 100 µM in each case. Moreover, the TGI in the assay on U251 CNS, in the assay on UACC-257 melanoma and in the assay on UACC-62 melanoma was above 100 µM throughout.

As to `CC1OC(n2cnc3c(N)nc(Cl)nc32)C(C)(O)C1O` (centres undefined), the TGI in the assay with A498 renal, with CCRF-CEM leukemia, in the assay on DU-145 prostate, in the assay with HCT-15 colon, in the assay on K-562 leukemia and in the assay with LOX IMVI melanoma was above 25 µM each time. The TGI in the assay with M14 melanoma, with MCF7 breast, with NCI-H23 lung, with NCI/ADR-RES ovarian, in the assay with SK-MEL-2 melanoma and with SK-OV-3 ovarian was above 25 µM in each case. Moreover, the TGI in the assay on SW-620 colon, with UACC-257 melanoma and in the assay with UACC-62 melanoma was above 25 µM in each case.

As for `N#C/C=C\c1ccc(-c2cc(C(F)(F)F)cc(C(F)(F)F)c2)o1`, the TGI was 61.3 µM in the assay on A498 renal; above 100 µM in the assay with CCRF-CEM leukemia; above 100 µM with DU-145 prostate; above 100 µM in the assay on K-562 leukemia; above 100 µM in the assay with LOX IMVI melanoma; above 100 µM in the assay with M14 melanoma. The TGI is above 100 µM with MCF7 breast; 30.1 µM with NCI-H23 lung; above 100 µM with NCI/ADR-RES ovarian; 41 µM in the assay on SK-MEL-2 melanoma; above 100 µM with SK-OV-3 ovarian; above 100 µM in the assay with SW-620 colon. Further, the results for the TGI in the assay with U251 CNS, with UACC-257 melanoma and in the assay on UACC-62 melanoma were 27.4 µM, above 100 µM and 62.8 µM, respectively.

Regarding `Fc1ccc(C(OCCN2CCC3CCC(C2)N3C/C=C/c2cccnc2)c2ccc(F)cc2)cc1` (centres undefined), the TGI in the assay with A498 renal amounted to 28 µM; in the assay on CCRF-CEM leukemia, 17.5 µM; in the assay with DU-145 prostate, 33.1 µM; in the assay with HCT-15 colon, 21.6 µM; in the assay with LOX IMVI melanoma it was 27 µM; in the assay on M14 melanoma it was 7.09 µM. The TGI in the assay with MCF7 breast stood at 25.5 µM; with NCI-H23 lung, 26.5 µM; in the assay on NCI/ADR-RES ovarian, 25.7 µM; in the assay on SK-MEL-2 melanoma, 26.5 µM; with SK-OV-3 ovarian, 29.3 µM; in the assay with SW-620 colon it was 23.1 µM. Moreover, the TGI turned out to be 24.4 µM in the assay on U251 CNS, 12.3 µM with UACC-257 melanoma and 25 µM in the assay with UACC-62 melanoma.

As for `Cc1cn(C2CC(O)C(Cn3nncc3Cn3ccc(=O)[nH]c3=O)O2)c(=O)[nH]c1=O` (centres undefined), the TGI in the assay on A498 renal, with CCRF-CEM leukemia, in the assay with DU-145 prostate, in the assay with HCT-15 colon, in the assay with LOX IMVI melanoma and with M14 melanoma was above 100 µM each time. The TGI with MCF7 breast, in the assay on NCI-H23 lung, in the assay on NCI/ADR-RES ovarian, in the assay with SK-MEL-2 melanoma, in the assay with SK-OV-3 ovarian and in the assay on SW-620 colon was above 100 µM in each case. For the same molecule, the TGI in the assay on U251 CNS, in the assay with UACC-257 melanoma and with UACC-62 melanoma was above 100 µM in each case.
